Experimental data from PMC3791872 (Bioscience Reports, 2013).
Read-outs that look alike come from different tables or passages of the source.

Experiments:
Mcm2-7 [1] = test system: T1, Mcm2-7; test: ssDNA double filter-binding assay, Mcm2-7; parameters: species or system Saccharomyces cerevisiae; conditions: 1 mM compound, 150 nM helicase
T1 construct: made in house; host or cells: baculovirus-infected insect cells

Mcm467 [2] = target: T2, Mcm467 (Saccharomyces cerevisiae, UniProt P30665+P38132+P53091); test: ssDNA double filter-binding assay, Mcm467; conditions: 1 mM compound, 150 nM helicase
T2 construct: made in house; host or cells: baculovirus-infected insect cells
T2 sequence (P30665 whole entry): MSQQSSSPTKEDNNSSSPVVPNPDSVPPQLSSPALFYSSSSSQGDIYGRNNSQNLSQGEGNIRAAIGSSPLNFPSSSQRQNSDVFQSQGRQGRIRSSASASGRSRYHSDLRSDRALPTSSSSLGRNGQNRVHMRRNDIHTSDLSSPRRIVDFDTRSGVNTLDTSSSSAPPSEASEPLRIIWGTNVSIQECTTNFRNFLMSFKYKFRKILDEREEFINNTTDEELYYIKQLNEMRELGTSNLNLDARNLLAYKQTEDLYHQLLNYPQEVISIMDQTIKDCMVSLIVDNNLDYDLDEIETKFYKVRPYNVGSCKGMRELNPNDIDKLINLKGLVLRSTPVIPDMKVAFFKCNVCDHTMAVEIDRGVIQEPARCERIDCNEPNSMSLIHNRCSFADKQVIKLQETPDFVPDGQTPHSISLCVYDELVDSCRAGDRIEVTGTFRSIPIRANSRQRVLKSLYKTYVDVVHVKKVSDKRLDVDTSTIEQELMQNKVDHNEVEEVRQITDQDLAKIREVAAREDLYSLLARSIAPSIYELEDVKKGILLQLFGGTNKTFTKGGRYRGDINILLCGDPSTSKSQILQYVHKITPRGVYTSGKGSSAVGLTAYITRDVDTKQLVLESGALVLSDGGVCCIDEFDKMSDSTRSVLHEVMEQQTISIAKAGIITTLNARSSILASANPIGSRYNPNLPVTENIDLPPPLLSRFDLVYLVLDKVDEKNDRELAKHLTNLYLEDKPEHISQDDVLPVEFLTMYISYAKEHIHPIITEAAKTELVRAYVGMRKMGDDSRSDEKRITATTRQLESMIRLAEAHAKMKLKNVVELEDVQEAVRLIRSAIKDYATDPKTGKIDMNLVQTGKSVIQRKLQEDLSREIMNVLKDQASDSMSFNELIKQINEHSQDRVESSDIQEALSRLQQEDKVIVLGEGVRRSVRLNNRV
T2 sequence (P53091 whole entry): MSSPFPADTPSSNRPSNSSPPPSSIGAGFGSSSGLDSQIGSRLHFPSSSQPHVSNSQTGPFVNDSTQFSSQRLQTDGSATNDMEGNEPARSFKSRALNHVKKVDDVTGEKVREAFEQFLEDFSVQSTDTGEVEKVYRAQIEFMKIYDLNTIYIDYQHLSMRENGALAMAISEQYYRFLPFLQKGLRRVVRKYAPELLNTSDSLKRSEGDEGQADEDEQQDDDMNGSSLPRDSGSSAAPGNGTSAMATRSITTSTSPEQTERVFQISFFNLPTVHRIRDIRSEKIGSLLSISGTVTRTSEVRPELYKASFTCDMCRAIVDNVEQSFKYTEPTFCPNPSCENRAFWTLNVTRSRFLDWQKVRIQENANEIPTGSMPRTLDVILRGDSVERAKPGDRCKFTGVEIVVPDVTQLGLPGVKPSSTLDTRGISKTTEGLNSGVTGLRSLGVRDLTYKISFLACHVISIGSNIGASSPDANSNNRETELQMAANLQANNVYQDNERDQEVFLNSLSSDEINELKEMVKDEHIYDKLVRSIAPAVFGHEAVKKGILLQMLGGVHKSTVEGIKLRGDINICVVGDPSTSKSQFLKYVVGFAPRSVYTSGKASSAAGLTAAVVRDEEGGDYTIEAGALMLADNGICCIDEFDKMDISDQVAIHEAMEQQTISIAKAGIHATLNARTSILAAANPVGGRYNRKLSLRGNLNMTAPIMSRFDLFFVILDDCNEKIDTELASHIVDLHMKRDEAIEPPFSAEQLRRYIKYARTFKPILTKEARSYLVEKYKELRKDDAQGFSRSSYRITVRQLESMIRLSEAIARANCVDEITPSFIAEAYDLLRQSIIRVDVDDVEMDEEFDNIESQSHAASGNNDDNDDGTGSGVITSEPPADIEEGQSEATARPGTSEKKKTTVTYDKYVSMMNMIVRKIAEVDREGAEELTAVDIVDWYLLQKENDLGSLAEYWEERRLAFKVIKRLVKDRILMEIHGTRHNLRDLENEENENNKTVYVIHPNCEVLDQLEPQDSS
T2 sequence (P38132 whole entry): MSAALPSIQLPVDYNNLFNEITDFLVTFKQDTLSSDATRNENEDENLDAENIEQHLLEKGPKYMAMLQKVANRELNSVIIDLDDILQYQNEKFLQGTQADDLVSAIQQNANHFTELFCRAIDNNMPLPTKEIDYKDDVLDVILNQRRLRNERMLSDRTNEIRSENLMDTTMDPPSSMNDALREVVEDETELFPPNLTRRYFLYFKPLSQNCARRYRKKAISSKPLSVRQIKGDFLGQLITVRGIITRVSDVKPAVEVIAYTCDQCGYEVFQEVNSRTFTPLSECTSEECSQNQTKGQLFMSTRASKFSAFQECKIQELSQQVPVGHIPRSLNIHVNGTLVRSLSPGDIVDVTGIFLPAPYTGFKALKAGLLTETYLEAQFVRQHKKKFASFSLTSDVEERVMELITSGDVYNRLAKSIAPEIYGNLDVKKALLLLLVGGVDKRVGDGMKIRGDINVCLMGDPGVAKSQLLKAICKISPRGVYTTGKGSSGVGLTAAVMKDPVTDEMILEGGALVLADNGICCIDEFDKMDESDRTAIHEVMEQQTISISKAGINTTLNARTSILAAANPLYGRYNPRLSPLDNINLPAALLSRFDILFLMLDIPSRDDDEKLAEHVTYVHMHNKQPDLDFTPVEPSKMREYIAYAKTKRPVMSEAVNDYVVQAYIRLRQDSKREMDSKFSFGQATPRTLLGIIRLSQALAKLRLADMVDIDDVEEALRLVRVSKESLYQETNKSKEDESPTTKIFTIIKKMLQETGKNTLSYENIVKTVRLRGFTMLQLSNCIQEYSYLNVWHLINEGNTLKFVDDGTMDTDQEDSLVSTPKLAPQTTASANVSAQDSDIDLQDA

Mcm2-7 [3] = target: T1, Mcm2-7; test: Mcm2-7 helicase (DNA unwinding) assay; format: biochemical, Saccharomyces cerevisiae
Mcm467 [4] = target: T2, Mcm467; test: Mcm467 helicase (DNA unwinding) assay; format: biochemical; conditions: 100 nM hexamer, inhibitor preincubation, value (95% CI)
[5] = target: SV40 large TAg (T-antigen) (Simian virus 40, UniProt P03070); test: biochemical; parameters: species or system SV40 (simian virus 40); conditions: DNA unwinding, 100 nM hexamer, inhibitor preincubation; […]; read-out: IC50 T-antigen
Sequence of SV40 large TAg (T-antigen) (P03070 whole entry, looked up): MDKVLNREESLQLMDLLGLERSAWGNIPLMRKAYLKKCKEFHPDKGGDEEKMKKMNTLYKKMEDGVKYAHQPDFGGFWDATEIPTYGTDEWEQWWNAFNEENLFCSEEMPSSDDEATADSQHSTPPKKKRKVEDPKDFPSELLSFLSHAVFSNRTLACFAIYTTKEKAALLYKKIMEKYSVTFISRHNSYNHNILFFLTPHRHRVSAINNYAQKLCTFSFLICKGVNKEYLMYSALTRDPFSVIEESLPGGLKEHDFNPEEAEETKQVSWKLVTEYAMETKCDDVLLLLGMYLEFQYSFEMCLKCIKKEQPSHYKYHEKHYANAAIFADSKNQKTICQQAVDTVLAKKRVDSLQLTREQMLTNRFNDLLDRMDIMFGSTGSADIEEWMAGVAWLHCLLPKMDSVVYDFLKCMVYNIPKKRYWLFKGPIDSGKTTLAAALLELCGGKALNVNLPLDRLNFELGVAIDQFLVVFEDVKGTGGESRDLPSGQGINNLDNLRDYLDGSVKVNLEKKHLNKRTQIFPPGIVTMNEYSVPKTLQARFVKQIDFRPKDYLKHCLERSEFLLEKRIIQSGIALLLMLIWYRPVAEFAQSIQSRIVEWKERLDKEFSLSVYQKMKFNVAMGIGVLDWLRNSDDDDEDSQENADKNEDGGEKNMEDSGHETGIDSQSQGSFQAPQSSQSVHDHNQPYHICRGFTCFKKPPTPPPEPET

[6] = test system: S. cerevisiae ∆erg6 (UPY675); test: Yeast growth inhibition, 96-well assay, ∆erg6 strain; format: cell-based, Saccharomyces cerevisiae; conditions: Saccharomyces cerevisiae; ∆erg6 strain, growth over 24 h; value (95% CI); read-out: IC50 Yeast
RPE-hTERT cells = test: Human cell viability, MTS method; format: cell-based; conditions: 48 h, value (95% CI)
Protocol: Ciproﬂoxacin is an inhibitor of the Mcm2-7 […]
The viability of human cells was assayed using the MTS method
[1]. Brieﬂy, 1 ×10^5 cells of the human non-tumour cell line RPE-hTERT were plated into each well of a 96-well plate and grown in DMEM: F12 containing 10 % (v/v) FBS in 5 % (v/v) CO2 at 37 ◦ C. The next day, the indicated compounds were titrated into media such that the ﬁnal concentration contained 1 % (v/v)
DMSO. As a negative control, media were also prepared that contained 1 % DMSO but lacked compound. After 48 h, the media was removed and replaced with DMEM lacking phenol red but containing Cell Titer 96 Aqueous One Solution Cell Proliferation
Assay (Promega). After 1 h, the A490 nm was measured using a BioRad iMark Microplate Reader (Hercules). Final data reﬂect the average and standard deviation (S.D.) of three replicates at each compound concentration. […]

pUC19 = test: DNA intercalation assay (Topo I-relaxed plasmid); format: biochemical
From the text: To examine this model, we tested our inhibitors in a standard topoisomerase assay. The rationale of this assay is that intercalating compounds will introduce supercoils into a fully relaxed plasmid. Topo I will remove these introduced supercoils, but after quenching and gel electrophoresis the intercalator will diffuse away and produce a detectable compensatory supercoiling increase.

DnaB = DnaB (Escherichia coli, UniProt P0ACB0); test: DnaB helicase assay; format: biochemical; conditions: 1 mM, Figure S3
Sequence of DnaB (P0ACB0 whole entry, the tested form may be a part): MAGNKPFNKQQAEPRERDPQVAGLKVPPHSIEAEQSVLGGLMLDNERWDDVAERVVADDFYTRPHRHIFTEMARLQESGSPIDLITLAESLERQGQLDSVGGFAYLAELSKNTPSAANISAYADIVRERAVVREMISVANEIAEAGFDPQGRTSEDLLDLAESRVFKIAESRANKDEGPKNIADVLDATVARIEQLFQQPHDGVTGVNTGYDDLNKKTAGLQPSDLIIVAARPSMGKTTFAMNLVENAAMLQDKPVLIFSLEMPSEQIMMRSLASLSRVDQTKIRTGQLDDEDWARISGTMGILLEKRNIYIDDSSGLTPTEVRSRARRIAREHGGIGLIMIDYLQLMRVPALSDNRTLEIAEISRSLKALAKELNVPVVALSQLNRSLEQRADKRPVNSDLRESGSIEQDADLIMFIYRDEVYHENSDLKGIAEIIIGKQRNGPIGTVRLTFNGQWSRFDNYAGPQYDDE
Protocol: (§1) Helicase assays were performed essentially as described. Synthetic replication forks were prepared by annealing oligos 233 and 235 [IDT (Coralville), oligo 233 5′(T)40[…]; oligo 235 5′ […](T)40] and then filling in the recessed 3′-end with [α32P]dATP and unlabelled dNTPs using Klenow Fragment. Briefly, reactions ([…]) were performed in 1× helicase assay buffer [20 mM Tris/HCl (pH 7.5), 10 mM MgOAc, 20% (v/v) glycerol, 100 μM EDTA and 5 mM DTT (dithiothreitol)] and contained a final concentration of 1 nM fork substrate, 5 mM ATP, 40 mM creatine phosphate, […] creatine kinase, 33 μg/ml BSA. Reactions containing Mcm2-7 and Mcm467 were supplemented with 200 mM potassium glutamate. Reactions containing SsoMcm were incubated at 65°C, those containing T4 gp41 were incubated for 30 min at 37°C, and all other reactions were incubated at 37°C for 1 h. The products were separated by 10% (w/v) native PAGE, the resulting gels dried and the radioactivity quantified using a Fuji FLA-5100 phosphoimager. Irrespective of the protein used, all helicase assays contained equal molar helicase concentrations (100 nM, assuming in all cases that the active helicase form is hexameric). Steady-state ATP hydrolysis was assayed as published. In short, reactions were set up essentially as in the helicase assay, with minor exceptions. A non-radiolabelled DNA fork was used, helicase concentration was 100 nM (hexamer) the total ATP concentration was 500 μM and included ~0.5 μCi of [α32P]ATP, and the ATP regeneration system was omitted. Reactions were incubated for 1 h at 37°C and stopped by the addition of SDS. ATP was separated from ADP by PEI (polyethyleneimine) thin layer chromatography, and the ratio of ATP:ADP was quantified using a Fuji FLA-5100 phosphoimager. Based on our prior work, conditions were established to ensure that the results shown are within the linear range of the assay. Protein–ssDNA binding was determined with a double filter-binding assay using an ssDNA probe (oligo 826, 5′[…]) that was 5′-radiolabelled using T4 polynucleotide kinase and [γ32P]ATP [16]. For the double filter-binding assay, the helicase concentration was 150 nM (hexamer) and the ssDNA concentration was 4 nM. For all biochemical assays, helicases were preincubated with inhibitors for 20 min at 37°C unless otherwise indicated. […]
(§2) against different helicases
(§3) Representative helicase activity assays in the presence of the indicated inhibitor were tested, quantiﬁed and standardized as described in the legend to F igures 2 (A) and (B). All helicases were assayed at 100 nM
(§4) ﬁnal concentration (hexamer) with inhibitor preincubation prior to ATP […]
(§5) F igure S3 Ciproﬂoxacin poor ly inhibits hexameric helicases un- […]
(§6) All inhibitors were used at 1 mM ﬁnal concentration. […]

T4 gp41 = target: T3, T4 gp41 (Enterobacteria phage T4, UniProt P04530); test: T4 gp41 helicase assay; format: biochemical; conditions: 1 mM, Figure S3
T3 sequence (P04530 1-475): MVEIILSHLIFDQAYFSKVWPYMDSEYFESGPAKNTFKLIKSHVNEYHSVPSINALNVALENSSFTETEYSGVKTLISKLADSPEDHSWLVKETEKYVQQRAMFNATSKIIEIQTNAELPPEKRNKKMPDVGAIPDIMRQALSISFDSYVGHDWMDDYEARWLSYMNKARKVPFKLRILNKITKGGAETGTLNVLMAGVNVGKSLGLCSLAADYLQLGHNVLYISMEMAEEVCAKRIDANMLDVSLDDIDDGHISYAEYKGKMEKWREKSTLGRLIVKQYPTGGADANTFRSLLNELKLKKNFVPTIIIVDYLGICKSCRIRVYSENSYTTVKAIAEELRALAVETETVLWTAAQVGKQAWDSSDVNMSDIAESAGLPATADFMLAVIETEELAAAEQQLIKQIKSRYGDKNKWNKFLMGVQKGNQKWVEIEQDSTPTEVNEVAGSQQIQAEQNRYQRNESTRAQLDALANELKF
Protocol: as §1, §2, §3, §4, §5, §6

Mcm2-7 [7] = test system: T1, Mcm2-7; test: Steady-state ATP hydrolysis by Mcm2-7; format: biochemical, Saccharomyces cerevisiae; conditions: 1 mM compound, 100 nM hexamer
Mcm467 [8] = target: T2, Mcm467; test: Steady-state ATP hydrolysis by Mcm467; format: biochemical; conditions: 1 mM compound, 100 nM hexamer
SV40 large TAg = target: T4, SV40 large TAg (Simian virus 40, UniProt P03070); test: Steady-state ATP hydrolysis by TAg; format: biochemical, SV40 (simian virus 40); conditions: 1 mM compound, 100 nM hexamer
T4 construct: made in house

[9] = target: T5, SsoMcm (Sulfolobus solfataricus Mcm protein) complex (Saccharolobus solfataricus, UniProt Q9UXG1); test: SsoMcm helicase assay; format: biochemical; conditions: 1 mM, 65°C, Figure S3
T5 sequence (Q9UXG1 1-686): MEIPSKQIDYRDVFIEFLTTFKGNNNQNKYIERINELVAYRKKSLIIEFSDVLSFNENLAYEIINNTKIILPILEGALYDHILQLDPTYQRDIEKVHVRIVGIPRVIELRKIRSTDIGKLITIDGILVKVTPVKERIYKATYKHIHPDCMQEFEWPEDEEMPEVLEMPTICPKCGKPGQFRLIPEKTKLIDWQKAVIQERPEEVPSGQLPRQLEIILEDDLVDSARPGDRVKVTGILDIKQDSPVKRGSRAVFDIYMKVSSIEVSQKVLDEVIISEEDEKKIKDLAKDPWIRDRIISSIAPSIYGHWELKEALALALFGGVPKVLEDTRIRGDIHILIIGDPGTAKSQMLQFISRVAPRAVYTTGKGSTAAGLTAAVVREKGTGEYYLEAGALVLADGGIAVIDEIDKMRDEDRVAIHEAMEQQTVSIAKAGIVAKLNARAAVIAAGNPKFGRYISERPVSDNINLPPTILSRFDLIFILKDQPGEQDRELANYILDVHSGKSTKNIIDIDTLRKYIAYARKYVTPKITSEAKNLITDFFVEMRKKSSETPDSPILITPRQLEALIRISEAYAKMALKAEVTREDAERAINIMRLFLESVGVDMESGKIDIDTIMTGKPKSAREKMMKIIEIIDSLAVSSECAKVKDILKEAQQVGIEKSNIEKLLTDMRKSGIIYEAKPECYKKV
Protocol: Helicase assays were performed essentially as described. Synthetic replication forks were prepared by annealing oligos 233 and 235 [IDT (Coralville), oligo 233 5′(T)40[…]; oligo 235 5′ […](T)40] and then filling in the recessed 3′-end with [α32P]dATP and unlabelled dNTPs using Klenow Fragment. Briefly, reactions ([…]) were performed in 1× helicase assay buffer [20 mM Tris/HCl (pH 7.5), 10 mM MgOAc, 20% (v/v) glycerol, 100 μM EDTA and 5 mM DTT (dithiothreitol)] and contained a final concentration of 1 nM fork substrate, 5 mM ATP, 40 mM creatine phosphate, […] creatine kinase, 33 μg/ml BSA. Reactions containing Mcm2-7 and Mcm467 were supplemented with 200 mM potassium glutamate. Reactions containing SsoMcm were incubated at 65°C, those containing T4 gp41 were incubated for 30 min at 37°C, and all other reactions were incubated at 37°C for 1 h. The products were separated by 10% (w/v) native PAGE, the resulting gels dried and the radioactivity quantified using a Fuji FLA-5100 phosphoimager. […] ATP was separated from ADP by PEI (polyethyleneimine) thin layer chromatography, and the ratio of ATP:ADP was quantified using a Fuji FLA-5100 phosphoimager. […] Protein–ssDNA binding was determined with a double filter-binding assay using an ssDNA probe (oligo 826, 5′[…]) that was 5′-radiolabelled using T4 polynucleotide kinase and [γ32P]ATP [16]. […]

[10] = 1 mM inhibitor added after plasmid relaxation (Figure 3C)
[11] = inhibitor at 2- to 3-fold over calculated helicase IC50 (Figure 3E)
[12] = DNA unwinding, 100 nM hexamer, inhibitor preincubation; value (95% CI); read-out: IC50 Mcm2-7
[13] = DNA unwinding, read-out: IC50 Mcm467

Structure (SMILES) | effect on ssDNA binding of Mcm2-7 (Mcm2-7 [1]) | effect on ssDNA binding of Mcm467 (Mcm467 [2]) | IC50 (Mcm2-7 [3]; read-out: IC50 Mcm2-7; DNA unwinding, 100 nM hexamer, inhibitor preincubation; value (95% CI)) | IC50 (Mcm467 [4]; IC50 Mcm467, DNA unwinding) | IC50 [5] | IC50 [6] | IC50 (RPE-hTERT cells) | IC50 (RPE-hTERT cells; Homo sapiens) | DNA intercalation (pUC19; [10]) | DNA intercalation (pUC19; [11]) | inhibition of DnaB helicase (DnaB) | inhibition of T4 gp41 helicase (T4 gp41) | IC50 (Mcm2-7 [3]; [12]) | IC50 (Mcm467 [4]; [13]) | effect on ATP hydrolysis of Mcm2-7 (Mcm2-7 [7]) | effect on ATP hydrolysis of Mcm467 (Mcm467 [8]) | effect on ATP hydrolysis of TAg (SV40 large TAg) | inhibition of SsoMcm helicase [9]
CCN1C(=O)C=CC1=O [NEM, N-ethylmaleimide] | inhibit | inhibit | – | – | – | – | – | – | – | – | – | – | – | – | – | – | – | –
Cc1c(F)c(N2CCC(N)C2)nc2c1c(=O)c(C(=O)O)cn2C1CC1 (stereo not shown) [compound 125248] | – | – | 72 µM | 130 µM | 190 µM | 460 µM | 14 µM | ~10 µM | extensive DNA intercalation | significant DNA intercalation | nearly complete inhibition | nearly complete inhibition | – | – | – | – | – | –
NC1CCN(c2ccc3c(=O)c(C(=O)O)cn(-c4ccc(O)cc4)c3c2Cl)C1 (stereo not shown) [compound 268973] | – | – | – | – | 476 µM | 160 µM | – | – | extensive DNA intercalation | significant DNA intercalation | nearly complete inhibition | nearly complete inhibition | 188 µM | 272 µM | modest inhibition | modest inhibition | modest inhibition | –
CSc1c(N2CCC(C(C)N)C2)ccc2c(=O)c(C(=O)O)cn(C3CC3)c12 (stereo not shown) [compound 314850] | – | – | – | – | > 1000 µM | 520 µM | 340 µM | 500 to 700 µM | little or no intercalation | – | – | – | 261 µM | 707 µM | essentially no inhibition | essentially no inhibition | essentially no inhibition | effectively inhibited
